Experimental data: patent US20130011427A1 (priority 2009, published 2013)

Key:
[1] = system: HLA-A24/huCD8α (HLA-A*2402) Tg mice, CD4-depleted splenocytes; assay type: cell-based, mouse
[2] = system: HLA-DR3 (DRB1*0301) Tg mice, CD8-depleted splenocytes; assay type: cell-based, mouse
[3] = system: HLA-DR4/huCD4 (DRB1*0401) Tg mice, CD8-depleted splenocytes; assay type: cell-based, mouse
[4] = system: HLA-A2.1 (HLA-A*0201) Tg mice, CD4-depleted splenocytes; assay type: cell-based, mouse
[5] = system: HLA-DR2 (DRB1*1501) Tg mice, CD8-depleted splenocytes; assay type: cell-based, mouse
[6] = target: HLA-DR4 (HLA-DRA*0101 / HLA-DRB1*0401) (human); experiment: cell-based or functional assay
[7] = target: HLA-A2.1 (HHD monochain) (human; murine); experiment: cell-based or functional assay
[8] = target: HLA-DR3 (HLA-DRA*0101 / HLA-DRB1*0301) (human); experiment: cell-based or functional assay
[9] = target: HLA-DR2 (chimeric HLA-DRA1*0101/DRB1*1501 with I-E domains) (human; murine) (UniProt Q8BHN5); experiment: cell-based or functional assay
Sequence of UniProt Q8BHN5 (Q8BHN5 whole entry, stated change not applied): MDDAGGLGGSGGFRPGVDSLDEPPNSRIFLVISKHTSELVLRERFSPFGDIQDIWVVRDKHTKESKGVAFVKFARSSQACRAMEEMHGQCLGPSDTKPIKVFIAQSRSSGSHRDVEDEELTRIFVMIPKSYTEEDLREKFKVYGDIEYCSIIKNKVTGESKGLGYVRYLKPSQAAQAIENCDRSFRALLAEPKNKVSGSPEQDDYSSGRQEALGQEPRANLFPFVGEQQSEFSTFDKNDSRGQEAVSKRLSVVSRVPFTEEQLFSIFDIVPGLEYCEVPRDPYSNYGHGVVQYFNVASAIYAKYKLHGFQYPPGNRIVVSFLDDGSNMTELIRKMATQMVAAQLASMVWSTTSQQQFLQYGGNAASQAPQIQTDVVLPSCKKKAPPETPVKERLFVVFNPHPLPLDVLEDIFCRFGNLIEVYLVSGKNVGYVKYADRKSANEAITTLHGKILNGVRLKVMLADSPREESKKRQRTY

DTACLAKSYAQMWLLLYF [NS5 755-772]
T cell activation of HLA transgenic mice (SFC/10^6) IFN-γ ELISpot, A24 [1]: 132 ± 62 SFC/10^6

DYINTSLTSINVQASALF [NS4b 63-80]
T cell activation of HLA transgenic mice (SFC/10^6) IFN-γ ELISpot, DR3 [2]: 386 ± 60 SFC/10^6
T cell activation of HLA transgenic mice (SFC/10^6) IFN-γ ELISpot, DR4 [3]: 92 ± 13 SFC/10^6

FACSTKAIGRTILKENIK [E 119-136]
T cell activation of HLA transgenic mice (SFC/10^6) IFN-γ ELISpot, A24 [1]: 179 ± 136 SFC/10^6

GIDTNAYYVMTVGTKTFL [E 195-212]
T cell activation of HLA transgenic mice (SFC/10^6) IFN-γ ELISpot, A24 [1]: 137 ± 70 SFC/10^6
T cell activation of HLA transgenic mice (SFC/10^6) IFN-γ ELISpot, DR4 [3]: 53 ± 16 SFC/10^6

GKLITDWCCRSCTLPPLR [NS1 305-322]
T cell activation of HLA transgenic mice (SFC/10^6) IFN-γ ELISpot, DR3 [2]: 557 ± 25 SFC/10^6
T cell activation of HLA transgenic mice (SFC/10^6) IFN-γ ELISpot, DR4 [3]: 109 ± 22 SFC/10^6

IALIALLSVMTMGVFFLL [NS4a 54-71]
T cell activation of HLA transgenic mice (SFC/10^6) IFN-γ ELISpot, A24 [1]: 70 ± 16 SFC/10^6

ILESDLIIPVTLAGPR [NS1 236-251]
T cell activation of HLA transgenic mice (SFC/10^6) IFN-γ ELISpot, A2 [4]: 78 ± 42 SFC/10^6
T cell activation of HLA transgenic mice (SFC/10^6) IFN-γ ELISpot, A24 [1]: 43 ± 18 SFC/10^6

ILPSVVGFWITLQYTKR [NS2b 115-131]
T cell activation of HLA transgenic mice (SFC/10^6) IFN-γ ELISpot, A2 [4]: 108 ± 60 SFC/10^6
T cell activation of HLA transgenic mice (SFC/10^6) IFN-γ ELISpot, A24 [1]: 56 ± 2 SFC/10^6

LITAAAVTLWENGASSVW [NS4b 201-218]
T cell activation of HLA transgenic mice (SFC/10^6) IFN-γ ELISpot, DR3 [2]: 99 ± 26 SFC/10^6
T cell activation of HLA transgenic mice (SFC/10^6) IFN-γ ELISpot, DR4 [3]: 73 ± 8 SFC/10^6

LVAAVIGWMLGSNTMQRV [prM 136-153]
T cell activation of HLA transgenic mice (SFC/10^6) IFN-γ ELISpot, DR2 [5]: 235 ± 9 SFC/10^6
T cell activation of HLA transgenic mice (SFC/10^6) IFN-γ ELISpot, DR3 [2]: 78 ± 35 SFC/10^6
T cell activation of HLA transgenic mice (SFC/10^6) IFN-γ ELISpot, DR4 [3]: 327 ± 162 SFC/10^6

NFQLMNDPGAPWKIWMLR [NS2b 84-101]
T cell activation of HLA transgenic mice (SFC/10^6) IFN-γ ELISpot, A24 [1]: 35 ± 1 SFC/10^6

PREHNGNEIVDVMCHATL [NS3 249-266]
T cell activation of HLA transgenic mice (SFC/10^6) IFN-γ ELISpot, A2 [4]: 79 ± 27 SFC/10^6
T cell activation of HLA transgenic mice (SFC/10^6) IFN-γ ELISpot, DR2 [5]: 139 ± 25 SFC/10^6
T cell activation of HLA transgenic mice (SFC/10^6) IFN-γ ELISpot, DR4 [3]: 46 ± 16 SFC/10^6

PTIDVKMMNMEAANLAEV [E 39-56]
T cell activation of HLA transgenic mice (SFC/10^6) IFN-γ ELISpot, A24 [1]: 137 ± 124 SFC/10^6

PYSGKREDIWCGSLIGTR [NS5 842-859]
T cell activation of HLA transgenic mice (SFC/10^6) IFN-γ ELISpot, A24 [1]: 180 ± 66 SFC/10^6

RVVFVVLLLLVAPAYS [prM 152-167]
T cell activation of HLA transgenic mice (SFC/10^6) IFN-γ ELISpot, A2 [4]: 318 ± 179 SFC/10^6
T cell activation of HLA transgenic mice (SFC/10^6) IFN-γ ELISpot, DR2 [5]: 269 ± 30 SFC/10^6
T cell activation of HLA transgenic mice (SFC/10^6) IFN-γ ELISpot, DR3 [2]: 90 ± 47 SFC/10^6
T cell activation of HLA transgenic mice (SFC/10^6) IFN-γ ELISpot, DR4 [3]: 117 ± 10 SFC/10^6

TLMEFEEPHATKQSVIAL [E 238-255]
T cell activation of HLA transgenic mice (SFC/10^6) IFN-γ ELISpot, A24 [1]: 122 ± 108 SFC/10^6

TWAENIQVAINQVRAII [NS5 863-879]
T cell activation of HLA transgenic mice (SFC/10^6) IFN-γ ELISpot, A24 [1]: 79 ± 11 SFC/10^6
T cell activation of HLA transgenic mice (SFC/10^6) IFN-γ ELISpot, DR3 [2]: 121 ± 2 SFC/10^6
T cell activation of HLA transgenic mice (SFC/10^6) IFN-γ ELISpot, DR4 [3]: 33 ± 1 SFC/10^6

TWTLIKNMEKPGLKR [NS4b 241-255]
T cell activation of HLA transgenic mice (SFC/10^6) IFN-γ ELISpot, A24 [1]: 53 ± 32 SFC/10^6

VFGGITYTDVLRYVILV [NS2a 45-61]
T cell activation of HLA transgenic mice (SFC/10^6) IFN-γ ELISpot, A24 [1]: 243 ± 196 SFC/10^6
T cell activation of HLA transgenic mice (SFC/10^6) IFN-γ ELISpot, DR2 [5]: 307 ± 119 SFC/10^6
T cell activation of HLA transgenic mice (SFC/10^6) IFN-γ ELISpot, DR4 [3]: 74 ± 11 SFC/10^6

VLGVATFFCWMAEVPGTK [NS4a 86-103]
T cell activation of HLA transgenic mice (SFC/10^6) IFN-γ ELISpot, A24 [1]: 65 ± 30 SFC/10^6
T cell activation of HLA transgenic mice (SFC/10^6) IFN-γ ELISpot, DR4 [3]: 63 ± 1 SFC/10^6

VMTMGVFFLLMQRKGIGK [NS4a 62-79]
T cell activation of HLA transgenic mice (SFC/10^6) IFN-γ ELISpot, A24 [1]: 117 ± 39 SFC/10^6

WFMWLGARFLEFEALGFL [NS5 477-494]
T cell activation of HLA transgenic mice (SFC/10^6) IFN-γ ELISpot, A24 [1]: 198 ± 60 SFC/10^6

WNV E 54-71 peptide
IFN-γ ELISpot (SFC/10^6) [6]: 205 SFC/10^6

WNV E 62-77 peptide
IFN-γ ELISpot (SFC/10^6) [7]: 465 SFC/10^6
IFN-γ ELISpot (SFC/10^6) [6]: 47 SFC/10^6

WNV E 99-113 peptide
IFN-γ ELISpot (SFC/10^6) [8]: 79 SFC/10^6

WNV E 127-144 peptide
IFN-γ ELISpot (SFC/10^6) [9]: 120 SFC/10^6
IFN-γ ELISpot (SFC/10^6) [8]: 198 SFC/10^6

WNV E 135-152 peptide
IFN-γ ELISpot (SFC/10^6) [8]: 86 SFC/10^6

WNV E 293-310 peptide
IFN-γ ELISpot (SFC/10^6) [6]: 47 SFC/10^6

WNV E 384-399 peptide
IFN-γ ELISpot (SFC/10^6) [8]: 87 SFC/10^6

WNV E 398-415 peptide
IFN-γ ELISpot (SFC/10^6) [9]: 168 SFC/10^6
IFN-γ ELISpot (SFC/10^6) [8]: 88 SFC/10^6

WNV E 426-443 peptide
IFN-γ ELISpot (SFC/10^6) [8]: 83 SFC/10^6

WNV E 434-451 peptide
IFN-γ ELISpot (SFC/10^6) [9]: 116 SFC/10^6
IFN-γ ELISpot (SFC/10^6) [8]: 79 SFC/10^6

WNV E 442-459 peptide
IFN-γ ELISpot (SFC/10^6) [7]: 442 SFC/10^6
IFN-γ ELISpot (SFC/10^6) [9]: 117 SFC/10^6
IFN-γ ELISpot (SFC/10^6) [8]: 101 SFC/10^6

WNV E 465-482 peptide
IFN-γ ELISpot (SFC/10^6) [7]: 310 SFC/10^6
IFN-γ ELISpot (SFC/10^6) [9]: 490 SFC/10^6
IFN-γ ELISpot (SFC/10^6) [8]: 330 SFC/10^6

WNV E 486-501 peptide
IFN-γ ELISpot (SFC/10^6) [7]: 323 SFC/10^6
IFN-γ ELISpot (SFC/10^6) [9]: 214 SFC/10^6
IFN-γ ELISpot (SFC/10^6) [8]: 244 SFC/10^6
